Results on 2 molecules are retold here after article PMC10765884, “MC180295 is a highly potent and selective CDK9 inhibitor with preclinical in vitro and in vivo efficacy in cancer” (Clinical Epigenetics, 2024).

Data set [1] addresses T1, CDK9 (Homo sapiens, UniProt P50750).
T1 construct: purchased Reaction Biology Corp
The arrangement: method as in PMID 26083714. Particulars: cited from earlier work.

The subject of data set [2] is CT26.CL25 cells. Put plainly: CT26.CL25 colon cancer model in B6 mice with/without CD8 depletion. It counts as in vivo. Particulars: CT26.CL25 s.c. in B6 mice, MC180295 20 mg/kg i.p. q.o.d., DAC 0.5 mg/kg i.p. daily. The protocol: Fig. 5 Survival and antitumor effects of MC180295, DAC, or their combination, with/without CD8 + T cells. A 20 mg/kg MC180295 was administered (i.p.) q.o.d. 0.5 mg/kg DAC was administered (i.p.) daily. Mouse survival in days. B Survival of B6 mice, after CD8 depletion, using an anti-CD8 antibody. 20 mg/kg MC180295 was administered (i.p.) q.o.d. 0.5 mg/kg DAC was administered (i.p.) daily. C Antitumor effects of MC180295 with and without CD8 depletion, using an anti-CD8 antibody. B6 mice were inoculated (s.c.) with 5 × 10^5 CT26.CL25 cells. Eight days later, when tumors were palpable, 20 mg/kg MC180295 was administered (i.p.) q.o.d. 0.5 mg/kg DAC was administered (i.p.) daily. Tumor sizes were measured using a caliper and calculated over vehicle. D Antitumor effects of DAC, with and without CD8 depletion, using an anti-CD8 antibody. B6 mice were inoculated (s.c.) with 5 × 10^5 CT26.CL25 cells. Eight days later, when tumors were palpable, 20 mg/kg MC180295 was administered (i.p.) q.o.d. 0.5 mg/kg DAC was administered (i.p.) daily. Tumor sizes were measured using a caliper and calculated over vehicle. E Antitumor effects of DAC + MC180295, with and without CD8 depletion, using an anti-CD8 antibody. B6 mice were inoculated (s.c.) with 5 × 10^5 CT26.CL25 cells. Eight days later, when tumors were palpable, 20 mg/kg MC180295 was administered (i.p.) q.o.d. 0.5 mg/kg DAC was administered (i.p.) daily. Tumor sizes were measured using a caliper and calculated over vehicle. Significances were calculated using log-rank (Mantel-Cox) or Student's T tests. Data shown as means ± SEMs
For the s.c. SW48 model, 2 × 10^6 cells were injected into the flanks of randomly assigned, gender-matched 8–10-week-old NSG mice. 20 mg/kg MC180379, MC180380, or MC180295 was injected (i.p.), every other day, when the tumors were palpable, 11 days after engraftment, until endpoints were met. Mice were sacrificed before tumor volumes exceeded 400 mm^2 (endpoint for this model). For the s.c. HT29 model, 2 × 10^6 cells were injected into the flanks of randomly assigned, gender-matched, 8–10-week-old NSG mice. […]

The test system of data set [3] is MV4-11-luc cells. In words: MV4-11-luc AML model in NSG mice. Particulars: MV4-11-luc in NSG mice, 0.5 mg/kg DAC i.p. daily alone.
Procedure: E NSG mice were inoculated (i.p.) with 5 × 10^5 MV4-11-luc cells. Four days later, when substantial tumor burden was evident by bioluminescence imaging, MC180379, MC180380, or vehicle were administered (i.p.) q.o.d at 20 mg/kg. Luciferase expression was quantified and calculated. F Mouse survival in days. […] Significances were calculated using log-rank (Mantel-Cox) or Student’s t tests.
0.5 mg/kg DAC was administered (i.p.) daily. […] B Mouse survival in days. 20 mg/kg MC180295 was administered (i.p.) q.o.d. 0.5 mg/kg DAC was administered (i.p.) daily. C NSG mice were inoculated (i.p.) with 5 × 10^5 MV4-11-luc cells. Four days later, when substantial tumor burden was evident by bioluminescence imaging, MC180295 (20 mg/kg) or vehicle were administered (i.p.) every other day. 0.5 mg/kg DAC was administered (i.p.) daily. Luciferase expression was quantified and calculated. […] 0.5 mg/kg DAC was administered (i.p.) daily. Mouse survival shown in days. Significances were calculated using log-rank (Mantel-Cox) or Student's t tests. Data are shown as means ± SEMs. ***p < 0.001
Both female and male NOD.Cg-Prkdcscid Il2rgtm1Wjl/SzJ (NSG) mice were used for the experiments. Age- and gender-matched mice were randomly assigned to each group. 8–10-week-old NSG mice were tail vein-injected with 5 × 10^5 MV4-11-luc cells. […] Natural death or accumulation of ascites fluid were used as endpoints.
The nature of data set [4]: Drug toxicity: body weights and complete blood counts in tumor-bearing mice. It counts as in vivo. Particulars: MV4-11 model, NSG mice, Fig. S4D.

Structures are written as SMILES.

T1 sequence (P50750 whole entry): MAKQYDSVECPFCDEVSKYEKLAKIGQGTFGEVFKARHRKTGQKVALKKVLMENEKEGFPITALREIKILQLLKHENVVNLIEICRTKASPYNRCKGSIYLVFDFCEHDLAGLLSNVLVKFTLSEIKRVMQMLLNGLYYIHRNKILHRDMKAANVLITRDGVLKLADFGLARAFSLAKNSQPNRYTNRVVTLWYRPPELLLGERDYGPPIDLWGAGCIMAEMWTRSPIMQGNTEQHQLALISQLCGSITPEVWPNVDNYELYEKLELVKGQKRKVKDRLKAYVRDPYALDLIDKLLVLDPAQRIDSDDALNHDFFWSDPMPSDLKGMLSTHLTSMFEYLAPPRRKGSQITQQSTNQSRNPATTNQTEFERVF
T1 sequence (O60563 whole entry partner): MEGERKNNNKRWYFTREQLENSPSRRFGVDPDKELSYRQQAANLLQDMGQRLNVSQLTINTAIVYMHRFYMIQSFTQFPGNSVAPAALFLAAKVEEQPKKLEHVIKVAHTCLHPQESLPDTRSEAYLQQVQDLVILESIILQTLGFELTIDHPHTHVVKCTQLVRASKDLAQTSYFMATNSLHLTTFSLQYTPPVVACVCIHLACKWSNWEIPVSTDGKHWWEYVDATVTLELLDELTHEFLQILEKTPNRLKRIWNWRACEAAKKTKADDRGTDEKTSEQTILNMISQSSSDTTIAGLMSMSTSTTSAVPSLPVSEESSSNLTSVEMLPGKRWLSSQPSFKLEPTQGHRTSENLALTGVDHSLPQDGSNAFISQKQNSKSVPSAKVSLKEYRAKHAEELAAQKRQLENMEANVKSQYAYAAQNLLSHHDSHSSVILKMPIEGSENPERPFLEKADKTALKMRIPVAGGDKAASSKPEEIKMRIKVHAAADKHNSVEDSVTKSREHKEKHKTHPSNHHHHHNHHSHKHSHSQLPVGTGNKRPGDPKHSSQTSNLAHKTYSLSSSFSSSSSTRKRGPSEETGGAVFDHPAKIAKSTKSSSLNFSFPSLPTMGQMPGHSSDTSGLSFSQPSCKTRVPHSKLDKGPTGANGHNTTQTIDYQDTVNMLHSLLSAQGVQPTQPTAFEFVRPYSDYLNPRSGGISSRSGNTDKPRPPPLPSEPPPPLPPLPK

For `NC1CCC(Nc2cc(-c3cccc(NCc4cccc(F)c4)n3)c(Cl)cn2)CC1` (centres unmarked) [iCDK9], the “selectivity toward CDK9, compared to CDKs 1, 2, 4, 7, and 8” value in data set [1] was “more than 600 fold”.

In the case of `Nc1ncn([C@H]2C[C@H](O)[C@@H](CO)O2)c(=O)n1` [DAC, decitabine, reference compound], the tumor size entry in data set [2] is recorded as “significantly decrease tumor size, in a CD8 + T cell-dependent manner”. Moreover, in data set [3], the survival result is on record as “did not show consistent tumor suppression or a survival benefit” and the “tumor suppression (luciferase)” value was “did not show consistent tumor suppression”. Moreover, the body weights result in data set [4] is on record as “did not affect NSG mouse body weights”.
